Results reported in PMC7827417, “Steroid Glycosides Hyrcanoside and Deglucohyrcanoside: On Isolation, Structural Identification, and Anticancer Activity” (Foods, 2021).

Tests used:
L929 = assay: MTS cytotoxic assay, L929; assay type: cell-based, mouse; conditions: Mus musculus, L929, 72 h
From the text: (§1) If not indicated otherwise, the cell lines were purchased from the American Type Culture Collection (ATCC). […] K562 is the erythroid-myeloid precursor cell line derived from chronic myeloid leukemia carrying the BCR-ABL hybrid gene. A549, MCF-7, PC-3, 5637, U-2 OS, and MiaPaCa-2 are cells derived from lung, breast, prostate, bladder carcinoma, osteosarcoma, and pancreatic adenocarcinoma, respectively. HEK 293T are transformed human embryonic kidney cells, and L929 (Sigma, St. Louis, MS, USA) are transformed mouse fibroblasts. HCT116, cells from colorectal carcinoma, and their p53 gene knock-out variant (HCT116p53-/-) were purchased from Horizon Discovery. This cell line is a model of human tumors bearing p53 loss-of-function mutations or biallelic deletion of the p53 gene, frequently associated with poor prognosis. The MRC-5 and BJ cells were used as noncancerous cells; more specifically, they are human fibroblasts from the lungs and foreskin, respectively. According to the supplier’s recommendations, all cells were cultured at 37 °C in a 5% CO2 atmosphere and 100% humidity. The culture media used were: DMEM, RPMI 1640, and MEM (according to a cell line); all were supplemented with 5 g L^−1 glucose, 10% fetal calf serum, 2 mM glutamine, 100 U mL^−1 penicillin, 100 µg mL^−1 streptomycin, and NaHCO3. Cells were passaged every two or three days using 0.25% trypsin plus 0.01% EDTA (ethylenediamine tetraacetic acid) in phosphate-buffered saline.
(§2) To evaluate compound cytotoxicity, cells were seeded in 384-well microtiter plates in a volume of […]. The next day, aliquots of the tested derivatives were transferred with Echo550 acoustic liquid handler (Labcyte) to obtain dose response curves with dilution factor 4. The experiments were performed in technical duplicates and three or more biological replicates. After 72 h of incubation in a humidified incubator, […] of the MTS/PMS stock solution were pipetted into each well. After another 1–4 h of incubation, the absorbance at 490 nm was measured using an EnVision Multilabel Plate Reader (PerkinElmer).

HCT116 = assay: MTS cytotoxic assay, HCT116; assay type: cell-based; conditions: Homo sapiens, HCT-116, 72 h
From the text: as §1, §2

HEK 293T = assay: MTS cytotoxic assay, HEK 293T; assay type: cell-based; conditions: Homo sapiens, HEK-293T, 72 h
From the text: as §1, §2

CCRF-CEM cells [1] = assay: Cell cycle arrest and cell death analysis by flow cytometry (propidium iodide, pH3Ser10); assay type: cell-based, human; conditions: % of positive cells
Experimental: Together with the CG-treated cells, a vehicle-treated sample was harvested at the same time point. After 24 h, the cells were washed with cold phosphate-buffered saline, fixed dropwise in 70% ethanol, and stored overnight at −20 °C. The cells were then washed with hypotonic citrate buffer, treated with RNAse (50 µg mL^−1), and stained with propidium iodide. Flow cytometry using a 488 nm laser (FACS-Calibur, Becton Dickinson, NJ, USA) was used for measurement. The cell cycle was analyzed by the ModFitLT program (Verity), and apoptosis was measured in a logarithmic model expressing the percentage of particles with a lower propidium content than cells in the G0/G1 phase (<G1) of the cell cycle in the CellQuest program (Becton Dickinson). Half of the sample was used to label cells with pH3^Ser10-FITC antibody (Exbio) for subsequent flow cytometry analysis of mitotic cells.

U-2 OS = assay: MTS cytotoxic assay, U-2 OS; assay type: cell-based; conditions: Homo sapiens, U2OS, 72 h
From the text: as §1, §2

5637 = assay: MTS cytotoxic assay, 5637; assay type: cell-based; conditions: Homo sapiens, 72 h
From the text: as §1, §2

CCRF-CEM cells [2] = assay: BrDU incorporation analysis (DNA synthesis); assay type: cell-based, human; conditions: % of positive cells
Experimental: The cells were cultured in the same way as the cell cycle analysis method. Just before harvesting, 5-bromo-2′-deoxyuridine (BrDU) of 10 µM concentration was added to the cells for pulse-labeling for 30 min. Then, the cells were fixed with −20 °C cold 70% ethanol and stored in a freezer for 16 h. Before antibody staining, the samples were incubated on ice for 30 min, washed once with phosphate-buffered saline (PBS), and re-suspended in 2 M of HCl for 30 min at room temperature to hydrolyze their DNA. After neutralization with 0.1 M of Na2B4O7 (borax) solution, the cells were washed with PBS containing 0.5% Tween-20 and 1% BSA. This was followed by staining with the primary anti-BrDU antibody (Exbio) for 30 min at room temperature. Then, the cells were washed with PBS and stained with a secondary anti-mouse antibody conjugated to fluorescein isothiocyanate (Merck-Sigma, St. Louis, MS, USA) at room temperature in the dark. After another washing with PBS and incubation with propidium iodide (0.1 mg·mL^−1) and RNAse A (0.5 mg·mL^−1) for 1 h at room temperature in the dark, the cells were analyzed by flow cytometry using a 488 nm laser (FACSCalibur, Becton Dickinson, Franklin Lakes, NJ, USA).

CCRF-CEM cells [3] = assay: BrU incorporation analysis (RNA synthesis); assay type: cell-based, human; conditions: % of positive cells
Experimental: The cells were cultured and processed as described above. Before harvesting, the cells were pulse-labeled with 1 mM of 5-bromouridine (BrU) for 30 min. The cells were then fixed in 1% buffered paraformaldehyde with 0.05% NP-40 at room temperature for 15 min, and then stored at 4 °C overnight. Before measurement, they were washed with 1% glycine in PBS, washed again with PBS, and stained with primary anti-BrdU antibody cross-reactive to BrU (Exbio) for 30 min at room temperature in the dark. From this point on, the experiment was performed exactly as in the method described above.

MRC-5 = assay: MTS cytotoxic assay, MRC-5; assay type: cell-based; conditions: Homo sapiens, MRC5, 72 h
From the text: as §1, §2

PC-3 = assay: MTS cytotoxic assay, PC-3; assay type: cell-based; conditions: Homo sapiens, PC-3, 72 h
From the text: as §1, §2

A549 = assay: MTS cytotoxic assay, A549; assay type: cell-based; conditions: Homo sapiens, A549, 72 h
From the text: as §1, §2

MiaPaCa-2 = assay: MTS cytotoxic assay, MiaPaCa-2; assay type: cell-based; conditions: Homo sapiens, MIA PaCa-2, 72 h
From the text: as §1, §2

MCF-7 = assay: MTS cytotoxic assay, MCF-7; assay type: cell-based; conditions: Homo sapiens, MCF7, 72 h
From the text: as §1, §2

CCRF-CEM = assay: MTS cytotoxic assay, CCRF-CEM; assay type: cell-based; conditions: Homo sapiens, 72 h
From the text: as §1, §2

C[C@H]1O[C@@H](O[C@H]2[C@@H](O)C[C@H](O[C@H]3[C@@H](O)C[C@H](O[C@H]4CC[C@@]5(C)[C@H](CC[C@@H]6[C@@H]5CC[C@]5(C)[C@@H](C7=CC(=O)OC7)CC[C@]65O)C4)O[C@@H]3C)O[C@@H]2C)C[C@H](O)[C@@H]1O [Dg, digitoxin]
IC50 (L929): > 10 µM
IC50 (HCT116): 0.02 ± 0.0015 µM
IC50 (HEK 293T): 0.069 ± 0.0021 µM
< G1 (apoptotic cells) (CCRF-CEM cells [1]; 1 × IC50, 24 h): 7.56%
G0/G1 (CCRF-CEM cells [1]; 1 × IC50, 24 h): 33.21%
G2/M (CCRF-CEM cells [1]; 1 × IC50, 24 h): 30.51%
M (Phospho-Histone3 (Ser10)) (CCRF-CEM cells [1]; 1 × IC50, 24 h): 1.97%
S (CCRF-CEM cells [1]; 1 × IC50, 24 h): 36.28%
< G1 (apoptotic cells) (CCRF-CEM cells [1]; 5 × IC50, 24 h): 10.35%
G0/G1 (CCRF-CEM cells [1]; 5 × IC50, 24 h): 33.71%
G2/M (CCRF-CEM cells [1]; 5 × IC50, 24 h): 44.03%
M (Phospho-Histone3 (Ser10)) (CCRF-CEM cells [1]; 5 × IC50, 24 h): 1.28%
S (CCRF-CEM cells [1]; 5 × IC50, 24 h): 22.26%
IC50 (U-2 OS): 0.045 ± 0.0021 µM
IC50 5637: 0.058 ± 0.0016 µM
BrDU (CCRF-CEM cells [2]; 1 × IC50, 24 h): 35.91%
BrDU (CCRF-CEM cells [2]; 5 × IC50, 24 h): 23.52%
BrU (CCRF-CEM cells [3]; 1 × IC50, 24 h): 42.99%
BrU (CCRF-CEM cells [3]; 5 × IC50, 24 h): 3.88%
IC50 (MRC-5): 0.078 ± 0.0019 µM
IC50 (PC-3): 0.069 ± 0.0022 µM
IC50 (A549): 0.019 ± 0.002 µM
IC50 (MiaPaCa-2): 0.079 ± 0.0028 µM
IC50 (MCF-7): 0.078 ± 0.0011 µM
IC50 (CCRF-CEM): 0.02 ± 0.0035 µM
